pIC50: −log10 of the molar value.
Test system: Plasmodium berghei
Test: Luciferase/luciferin-expressing antifolate-resistant parasites were used to infect a culture of HepG2 cells that were pre-incubated with compounds. Infected hepatocytes emit light due to the luciferase reaction. Assay results are presented as the percent inhibition of light emission compared to control. […]
Format: functional
Conditions: sporozoite; for IC90: read-out: LUCIFERASE INFECTION ASSAY - IC90
[1] = read-out: LUCIFERASE INFECTION ASSAY - IC50

Structure (SMILES)	IC90	further results
O=S(=O)(Nc1cc(C(F)(F)F)cc(C(F)(F)F)c1)c1cc(C(F)(F)F)cc(C(F)(F)F)c1	4.66 µM	pIC50 (FFLUC_HILL_SLOPE 10.6, FFLUC_R_SQUARED 0.544, PBLUC_HILL_SLOPE 1.62, PBLUC_R_SQUARED 0.523, read-out: LUCIFERASE INFECTION ASSAY - IC50): 5.92
CCOC(=O)c1ccc(NC2CCCCC2)c(/N=C/c2cc(Cl)cc(Cl)c2O)c1	2.39 µM	pIC50 (HEPG2TOX_HILL_SLOPE 1.82, HEPG2TOX_R_SQUARED 0.941, PBLUC_HILL_SLOPE 4.39, PBLUC_R_SQUARED 0.446, read-out: LUCIFERASE INFECTION ASSAY - IC50): 5.84
CCCCNC(=O)c1c(NC(=O)c2cccc(C)c2)nc2ccc(C)cn12	3.17 µM	pIC50 (FFLUC_HILL_SLOPE 134, FFLUC_R_SQUARED 0.564, HEPG2TOX_HILL_SLOPE 2.72, HEPG2TOX_R_SQUARED 0.791, PBLUC_HILL_SLOPE 3.36, PBLUC_R_SQUARED 0.556, read-out: LUCIFERASE INFECTION ASSAY - IC50): 5.78
N/C(CC(=O)Nc1ccc(F)cc1F)=N\O	> 14.4 µM	pIC50 [1]: < 4.84
Cc1cc(Oc2c(C)cccc2C)c2ccccc2n1	> 12.5 µM	pIC50 (PBLUC_HILL_SLOPE 0.514, PBLUC_R_SQUARED 0.0638, read-out: LUCIFERASE INFECTION ASSAY - IC50): < 4.90
COc1cc(NC(=S)Nc2cccc(OC(F)(F)F)c2)cc(C(F)(F)F)c1	> 8.04 µM	pIC50 (PBLUC_HILL_SLOPE 0.721, PBLUC_R_SQUARED 0.563, read-out: LUCIFERASE INFECTION ASSAY - IC50): 5.63
CCCCNC(=O)c1c(NC(=O)c2cc(OC)cc(OC)c2)nc2ccccn12	5.61 µM	pIC50 (FFLUC_HILL_SLOPE 9.35, FFLUC_R_SQUARED 0.0665, PBLUC_HILL_SLOPE 7.48, PBLUC_R_SQUARED 0.629, read-out: LUCIFERASE INFECTION ASSAY - IC50): 5.38
CCOC(=O)CC(=O)CSc1nnc(-c2ccccc2Cl)n1-c1ccccc1F	0.0166 µM	pIC50 (PBLUC_HILL_SLOPE 12.3, PBLUC_R_SQUARED 0.795, read-out: LUCIFERASE INFECTION ASSAY - IC50): 7.86
COc1cc(-c2cnc3cnc(-c4ccc(N)nc4)cn23)ccc1O	4.1 µM	pIC50 (HEPG2TOX_HILL_SLOPE 2.67, HEPG2TOX_R_SQUARED 0.695, PBLUC_HILL_SLOPE 3.91, PBLUC_R_SQUARED 0.793, read-out: LUCIFERASE INFECTION ASSAY - IC50): 5.63
Cc1ccc(NC(=O)CSc2ccc(Nc3ccc(C)cc3)nn2)cc1	> 9.05 µM	pIC50 [1]: < 5.04
CN(C)CC(C)(C)CNc1nn2cc(-c3ccccc3)nc2s1	> 10 µM	pIC50 (PBLUC_HILL_SLOPE 0.619, PBLUC_R_SQUARED 0.654, read-out: LUCIFERASE INFECTION ASSAY - IC50): 6.14
Clc1ccccc1-c1cnc2sc(NCc3cccs3)nn12	> 9.51 µM	pIC50 (FFLUC_HILL_SLOPE 0.509, FFLUC_R_SQUARED 0.232, read-out: LUCIFERASE INFECTION ASSAY - IC50): < 5.02
O=c1c2ccccc2[nH]c2ccccc12 [ACRIDONE]	5.03 µM	pIC50 (PBLUC_HILL_SLOPE 1.89, PBLUC_R_SQUARED 0.789, read-out: LUCIFERASE INFECTION ASSAY - IC50): 5.80
CN(C1=C(NC(=O)c2ccccc2)C(=O)c2ccccc2C1=O)C1CCS(=O)(=O)C1 (centres undefined)	> 10 µM	pIC50 (PBLUC_HILL_SLOPE 12.4, PBLUC_R_SQUARED 0.0349, read-out: LUCIFERASE INFECTION ASSAY - IC50): 5.03
COc1ccc(C(=O)C(/C=N/N)=N/Nc2cc(C)cc(C)c2)cc1	5.98 µM	pIC50 (HEPG2TOX_HILL_SLOPE 2.41, HEPG2TOX_R_SQUARED 0.984, PBLUC_HILL_SLOPE 5.05, PBLUC_R_SQUARED 0.51, read-out: LUCIFERASE INFECTION ASSAY - IC50): 5.41
Cc1[nH]c2ccccc2c1C1=NNC(=NCc2ccc3c(c2)OCO3)SC1	> 10 µM	pIC50 (FFLUC_HILL_SLOPE 2.18, FFLUC_R_SQUARED 0.288, PBLUC_HILL_SLOPE 2.54, PBLUC_R_SQUARED 0.596, read-out: LUCIFERASE INFECTION ASSAY - IC50): 5.34
CCOc1cc2c(cc1CNC(=O)c1cccc(NC(=O)c3cccs3)c1)OC(C)C2 (centres undefined)	> 10 µM	pIC50 (PBLUC_HILL_SLOPE 17.6, PBLUC_R_SQUARED 0.496, read-out: LUCIFERASE INFECTION ASSAY - IC50): 5.02
CC(=O)Nc1cccc2c1CCN(c1ncnc3sccc13)C2	3.46 µM	pIC50 (PBLUC_HILL_SLOPE 34.6, PBLUC_R_SQUARED 0.49, read-out: LUCIFERASE INFECTION ASSAY - IC50): 5.49
O=C(NNC(=O)c1nn(-c2ccccc2)cc1O)c1ccc2c(c1)OCO2	6.28 µM	pIC50 (PBLUC_HILL_SLOPE 71.1, PBLUC_R_SQUARED 0.59, read-out: LUCIFERASE INFECTION ASSAY - IC50): 5.22
Clc1ccc(-c2csc3ncnc(NCc4ccc(N5CCOCC5)nc4)c23)cc1	> 10 µM	pIC50 (HEPG2TOX_HILL_SLOPE 1.06, HEPG2TOX_R_SQUARED 0.974, PBLUC_HILL_SLOPE 2.24, PBLUC_R_SQUARED 0.328, read-out: LUCIFERASE INFECTION ASSAY - IC50): 5.26

Structure (SMILES)	IC90	further results
O=C(Nc1ccn(-c2ccccc2)n1)c1cc(-c2ccccc2)nc2ccccc12	> 10 µM	pIC50 (PBLUC_HILL_SLOPE 22.3, 9.62, PBLUC_R_SQUARED 0.228, 0.621, read-out: LUCIFERASE INFECTION ASSAY - IC50): 5.02
Cc1cc(C(=O)COC(=O)c2[nH]nc3ccccc23)c(C)n1CC1CCCO1 (centres undefined)	0.491 µM	pIC50 [1]: 6.38
Fc1cccc(Nc2cc3c(cn2)ncn3Cc2ccccc2)c1	> 10 µM	pIC50 (HEPG2TOX_HILL_SLOPE 2.72, HEPG2TOX_R_SQUARED 0.764, PBLUC_HILL_SLOPE 2.07, PBLUC_R_SQUARED 0.581, read-out: LUCIFERASE INFECTION ASSAY - IC50): 5.08
OC(CN1CCCCC1)Cn1c2ccc(Br)cc2c2cc(Br)cc(Br)c21 (centres undefined)	> 6.05 µM	pIC50 [1]: < 5.22
CC(C)[C@H](NC(=O)c1ccccc1Cl)C(=O)Nc1nc(-c2ccccn2)cs1	6.36 µM	pIC50 (HEPG2TOX_HILL_SLOPE 4.61, HEPG2TOX_R_SQUARED 0.937, PBLUC_HILL_SLOPE 2.78, PBLUC_R_SQUARED 0.749, read-out: LUCIFERASE INFECTION ASSAY - IC50): 5.54
CC(=O)c1cccc(-c2cnc3ccc(-c4cccc(Cl)c4)nn23)c1	8.63 µM	pIC50 (HEPG2TOX_HILL_SLOPE 0.743, HEPG2TOX_R_SQUARED 0.718, PBLUC_HILL_SLOPE 1.63, PBLUC_R_SQUARED 0.591, read-out: LUCIFERASE INFECTION ASSAY - IC50): 5.65
CC(C)(C)c1csc(-c2ccc(-n3cncn3)nc2)n1	> 11.6 µM	pIC50 (HEPG2TOX_HILL_SLOPE 9.36, HEPG2TOX_R_SQUARED 0.478, read-out: LUCIFERASE INFECTION ASSAY - IC50): < 4.94
N#CCCn1cc(/C=N/Nc2nc3ccccc3s2)c(-c2ccc(F)cc2)n1	> 10 µM	pIC50 [1]: < 5.00
C=CC/N=c1\scc(-c2ccc(OC(F)F)cc2)n1/N=C/c1ccc(O)cc1O	> 10 µM	pIC50 (PBLUC_HILL_SLOPE 2.81, PBLUC_R_SQUARED 0.0539, read-out: LUCIFERASE INFECTION ASSAY - IC50): < 5.00
Cc1sc2ncnc(NC(C)c3ccc(S(C)(=O)=O)cc3)c2c1C (centres undefined)	> 10 µM	pIC50 (HEPG2TOX_HILL_SLOPE 5.66, HEPG2TOX_R_SQUARED 0.483, PBLUC_HILL_SLOPE 1.68, PBLUC_R_SQUARED 0.334, read-out: LUCIFERASE INFECTION ASSAY - IC50): 5.21
COc1cc(-c2cncc(Nc3cccc(C(F)(F)F)c3)n2)cc(OC)c1OC	> 8.14 µM	pIC50 [1]: 5.34
CCc1ccc(C(=O)C(C)Sc2ccc(S(=O)(=O)N3CCOCC3)cn2)cc1 (centres undefined)	> 10 µM	pIC50 [1]: < 5.00
COc1ccc([N+](=O)[O-])cc1NC(=O)COC(=O)CSCc1c(C)noc1C	> 10 µM	pIC50 [1]: < 5.00
Cc1ccccc1N1CCN(C(=O)c2ccc(Cl)c(S(=O)(=O)NCc3ccccc3)c2)CC1	> 10 µM	pIC50 (HEPG2TOX_HILL_SLOPE 11.1, HEPG2TOX_R_SQUARED 0.861, PBLUC_HILL_SLOPE 8.51, PBLUC_R_SQUARED 0.104, read-out: LUCIFERASE INFECTION ASSAY - IC50): 5.03
Cc1cc(C)c2c(C)c(C(=O)Nc3cc(S(=O)(=O)N4CCCCC4)ccc3N(C)C)sc2n1	> 10 µM	pIC50 [1]: 5.18
CC(=O)Nc1cccc(Oc2ccc(C(=O)Nc3ccc4ccccc4c3)cc2[N+](=O)[O-])c1	1.68 µM	pIC50 (HEPG2TOX_HILL_SLOPE 7.7, HEPG2TOX_R_SQUARED 0.774, PBLUC_HILL_SLOPE 1.37, PBLUC_R_SQUARED 0.884, read-out: LUCIFERASE INFECTION ASSAY - IC50): 6.47
CNS(=O)(=O)c1cccc(C(=O)Nc2ccc(Cl)c(C(F)(F)F)c2)c1	> 10 µM	pIC50 (HEPG2TOX_HILL_SLOPE 0.613, HEPG2TOX_R_SQUARED 0.555, PBLUC_HILL_SLOPE 3.22, PBLUC_R_SQUARED 0.568, read-out: LUCIFERASE INFECTION ASSAY - IC50): 5.14
c1ccc2cc(-c3cc4ccccc4[nH]3)ccc2c1	> 13.6 µM	pIC50 (HEPG2TOX_HILL_SLOPE 2.23, HEPG2TOX_R_SQUARED 0.773, PBLUC_HILL_SLOPE 13.6, PBLUC_R_SQUARED 0.0646, read-out: LUCIFERASE INFECTION ASSAY - IC50): 4.91
CN(CC1COc2ccccc2O1)C(=O)Nc1nc2ccccc2s1 (centres undefined)	> 10 µM	–
COc1ccc(-[n+]2c(C)cn3c2CCc2ccccc2-3)cc1	3.96 µM	pIC50 (HEPG2TOX_HILL_SLOPE 1.53, HEPG2TOX_R_SQUARED 0.982, PBLUC_HILL_SLOPE 13.1, PBLUC_R_SQUARED 0.299, read-out: LUCIFERASE INFECTION ASSAY - IC50): 5.47
